Laboratory results published in article PMC11233931, “Remodeling tumor‐associated macrophage for anti‐cancer effects by rational design of irreversible inhibition of mitogen‐activated protein kinase‐activated protein kinase 2” (MedComm, 2024).

How the values were obtained:
Assay in all cases: Eurofins kinase selectivity profile against 380 other human recombinant kinases (Table S2)
Format in all cases: biochemical
[1] = biological target: T1, 380 human recombinant protein kinases (Homo sapiens, UniProt P16234); conditions: PDGFRα(h), read-out: Inhibition rate
T1 construct: purchased Eurofins (Celle Lévescault)
T1 sequence (P16234 24-1089): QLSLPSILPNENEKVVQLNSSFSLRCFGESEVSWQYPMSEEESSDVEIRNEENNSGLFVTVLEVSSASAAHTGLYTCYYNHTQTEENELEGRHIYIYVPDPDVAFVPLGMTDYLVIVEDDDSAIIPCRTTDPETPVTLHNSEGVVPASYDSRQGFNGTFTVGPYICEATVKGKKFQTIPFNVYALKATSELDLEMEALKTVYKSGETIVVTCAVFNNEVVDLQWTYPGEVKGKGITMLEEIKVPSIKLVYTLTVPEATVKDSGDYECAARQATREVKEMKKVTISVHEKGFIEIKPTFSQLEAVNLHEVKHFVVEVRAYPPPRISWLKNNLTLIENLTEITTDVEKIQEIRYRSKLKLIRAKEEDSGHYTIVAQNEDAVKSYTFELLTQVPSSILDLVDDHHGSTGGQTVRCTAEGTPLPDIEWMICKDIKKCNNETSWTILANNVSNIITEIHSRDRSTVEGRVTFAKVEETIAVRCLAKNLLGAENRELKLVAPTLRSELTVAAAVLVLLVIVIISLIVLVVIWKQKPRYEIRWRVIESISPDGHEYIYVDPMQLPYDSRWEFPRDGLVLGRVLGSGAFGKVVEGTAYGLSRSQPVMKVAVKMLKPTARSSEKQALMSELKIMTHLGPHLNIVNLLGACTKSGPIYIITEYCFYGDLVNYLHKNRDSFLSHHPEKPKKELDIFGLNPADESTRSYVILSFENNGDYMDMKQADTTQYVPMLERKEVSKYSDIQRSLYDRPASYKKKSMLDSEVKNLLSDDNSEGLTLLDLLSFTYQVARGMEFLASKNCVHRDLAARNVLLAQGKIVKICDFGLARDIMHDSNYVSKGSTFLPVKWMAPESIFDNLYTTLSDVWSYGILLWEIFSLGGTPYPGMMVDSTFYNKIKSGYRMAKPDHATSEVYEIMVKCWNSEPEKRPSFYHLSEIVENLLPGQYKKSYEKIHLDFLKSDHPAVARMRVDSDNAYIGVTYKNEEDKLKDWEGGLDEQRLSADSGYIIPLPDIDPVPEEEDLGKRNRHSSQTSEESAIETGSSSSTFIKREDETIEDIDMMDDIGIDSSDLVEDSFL
Procedure, shortened: (§1)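 Commercial selectivity screen of the test compound against a panel of 380 human recombinant protein kinases, run by an outside contractor at several compound concentrations to check whether its potency was specific for MK2.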

[2] = biological target: T2, 380 human recombinant protein kinases (Homo sapiens, UniProt P37173); conditions: TGFBR2(h), read-out: Inhibition rate (%)
T2 construct: purchased Eurofins (Celle Lévescault)
Procedure, shortened: as §1

[3] = biological target: T3, 380 human recombinant protein kinases (Homo sapiens, UniProt O00443); conditions: PI3KC2α(h), read-out: Inhibition rate (%)
T3 construct: purchased Eurofins (Celle Lévescault)
Procedure, shortened: as §1

[4] = biological target: T4, 380 human recombinant protein kinases (Homo sapiens, UniProt Q86V86); conditions: Pim-3(h), read-out: Inhibition rate
T4 construct: purchased Eurofins (Celle Lévescault)
Procedure, shortened: as §1

[5] = biological target: T5, 380 human recombinant protein kinases (Homo sapiens, UniProt P53779); conditions: JNK3(h), read-out: Inhibition rate
T5 construct: purchased Eurofins (Celle Lévescault)
Procedure, shortened: as §1

[6] = biological target: T6, 380 human recombinant protein kinases (Homo sapiens, UniProt P42336, H1047R); conditions: PI3 Kinase (p110α(H1047R)/p85α)(h), read-out: Inhibition rate (%)
T6 construct: purchased Eurofins (Celle Lévescault)
T6 sequence (P42336 whole entry H1047R): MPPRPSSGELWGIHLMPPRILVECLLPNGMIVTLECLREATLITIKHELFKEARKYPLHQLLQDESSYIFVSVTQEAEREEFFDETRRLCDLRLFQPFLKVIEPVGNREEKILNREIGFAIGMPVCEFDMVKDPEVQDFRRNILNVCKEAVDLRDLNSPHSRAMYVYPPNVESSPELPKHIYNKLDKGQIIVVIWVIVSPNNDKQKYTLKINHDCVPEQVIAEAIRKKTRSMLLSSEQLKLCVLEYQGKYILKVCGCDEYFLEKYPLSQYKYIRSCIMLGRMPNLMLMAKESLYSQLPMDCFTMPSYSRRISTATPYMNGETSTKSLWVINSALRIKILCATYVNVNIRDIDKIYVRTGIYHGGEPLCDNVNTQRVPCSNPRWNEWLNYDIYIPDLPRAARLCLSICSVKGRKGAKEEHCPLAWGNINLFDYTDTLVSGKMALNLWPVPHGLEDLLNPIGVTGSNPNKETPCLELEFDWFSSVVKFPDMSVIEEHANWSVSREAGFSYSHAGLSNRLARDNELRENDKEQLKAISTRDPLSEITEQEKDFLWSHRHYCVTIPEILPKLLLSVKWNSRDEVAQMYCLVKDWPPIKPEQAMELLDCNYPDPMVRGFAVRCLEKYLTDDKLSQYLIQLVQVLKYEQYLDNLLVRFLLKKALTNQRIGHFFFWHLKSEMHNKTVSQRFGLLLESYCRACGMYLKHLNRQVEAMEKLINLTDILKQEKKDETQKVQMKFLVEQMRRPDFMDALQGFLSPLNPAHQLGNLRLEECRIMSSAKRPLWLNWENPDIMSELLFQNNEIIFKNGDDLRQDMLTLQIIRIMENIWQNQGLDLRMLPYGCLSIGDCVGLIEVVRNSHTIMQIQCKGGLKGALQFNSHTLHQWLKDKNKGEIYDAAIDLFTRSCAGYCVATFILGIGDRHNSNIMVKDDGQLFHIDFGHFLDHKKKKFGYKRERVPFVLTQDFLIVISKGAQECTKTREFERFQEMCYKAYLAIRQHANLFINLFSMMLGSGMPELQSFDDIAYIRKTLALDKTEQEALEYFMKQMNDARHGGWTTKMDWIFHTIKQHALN
Procedure, shortened: as §1

[7] = biological target: T7, 380 human recombinant protein kinases (Homo sapiens, UniProt Q13554); conditions: CaMKIIβ(h), read-out: Inhibition rate
T7 construct: purchased Eurofins (Celle Lévescault)
T7 sequence (Q13554 whole entry): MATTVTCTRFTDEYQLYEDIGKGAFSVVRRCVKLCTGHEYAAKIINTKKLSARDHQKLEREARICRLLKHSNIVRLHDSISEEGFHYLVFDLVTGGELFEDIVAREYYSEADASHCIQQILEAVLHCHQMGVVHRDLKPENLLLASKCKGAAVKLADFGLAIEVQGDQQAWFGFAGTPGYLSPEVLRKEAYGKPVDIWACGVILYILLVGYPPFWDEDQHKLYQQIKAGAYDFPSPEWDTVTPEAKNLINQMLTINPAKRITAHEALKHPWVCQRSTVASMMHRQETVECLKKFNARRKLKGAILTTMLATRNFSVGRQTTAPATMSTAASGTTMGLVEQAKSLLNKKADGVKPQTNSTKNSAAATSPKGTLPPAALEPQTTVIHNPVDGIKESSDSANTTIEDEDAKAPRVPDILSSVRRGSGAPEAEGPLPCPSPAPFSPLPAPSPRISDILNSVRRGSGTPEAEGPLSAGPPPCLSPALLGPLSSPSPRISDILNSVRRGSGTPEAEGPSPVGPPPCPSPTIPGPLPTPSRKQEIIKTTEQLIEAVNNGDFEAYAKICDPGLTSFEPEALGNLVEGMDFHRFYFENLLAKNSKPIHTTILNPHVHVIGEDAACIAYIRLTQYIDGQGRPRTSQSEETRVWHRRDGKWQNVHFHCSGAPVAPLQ
Procedure, shortened: as §1

[8] = biological target: T8, 380 human recombinant protein kinases (Homo sapiens, UniProt Q14164); conditions: IKKε(h), read-out: Inhibition rate
T8 construct: purchased Eurofins (Celle Lévescault)
T8 sequence (Q14164 1-716): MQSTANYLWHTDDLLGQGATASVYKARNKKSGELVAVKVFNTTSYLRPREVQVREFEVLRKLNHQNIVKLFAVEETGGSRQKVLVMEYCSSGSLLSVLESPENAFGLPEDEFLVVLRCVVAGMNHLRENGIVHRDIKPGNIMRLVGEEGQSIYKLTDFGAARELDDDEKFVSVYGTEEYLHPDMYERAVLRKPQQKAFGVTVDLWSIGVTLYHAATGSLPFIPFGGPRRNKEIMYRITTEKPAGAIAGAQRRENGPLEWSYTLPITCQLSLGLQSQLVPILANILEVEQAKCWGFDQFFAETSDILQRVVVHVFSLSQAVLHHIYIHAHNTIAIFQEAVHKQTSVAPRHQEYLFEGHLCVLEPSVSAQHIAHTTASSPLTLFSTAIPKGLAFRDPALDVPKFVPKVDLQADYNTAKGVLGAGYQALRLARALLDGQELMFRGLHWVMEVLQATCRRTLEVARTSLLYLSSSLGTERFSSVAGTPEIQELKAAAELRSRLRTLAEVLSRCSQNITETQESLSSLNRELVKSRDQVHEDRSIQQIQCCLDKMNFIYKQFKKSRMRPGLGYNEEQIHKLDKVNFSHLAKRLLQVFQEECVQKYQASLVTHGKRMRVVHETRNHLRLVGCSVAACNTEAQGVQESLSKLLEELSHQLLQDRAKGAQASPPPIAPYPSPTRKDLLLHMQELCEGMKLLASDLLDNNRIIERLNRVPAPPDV
Procedure, shortened: as §1

[9] = biological target: T9, 380 human recombinant protein kinases (Homo sapiens, UniProt P07332); conditions: Fes(h), read-out: Inhibition rate
T9 construct: purchased Eurofins (Celle Lévescault)
Procedure, shortened: as §1

[10] = biological target: T10, 380 human recombinant protein kinases (Homo sapiens, UniProt Q16512); conditions: PRK1(h), read-out: Inhibition rate
T10 construct: purchased Eurofins (Celle Lévescault)
T10 sequence (Q16512 whole entry): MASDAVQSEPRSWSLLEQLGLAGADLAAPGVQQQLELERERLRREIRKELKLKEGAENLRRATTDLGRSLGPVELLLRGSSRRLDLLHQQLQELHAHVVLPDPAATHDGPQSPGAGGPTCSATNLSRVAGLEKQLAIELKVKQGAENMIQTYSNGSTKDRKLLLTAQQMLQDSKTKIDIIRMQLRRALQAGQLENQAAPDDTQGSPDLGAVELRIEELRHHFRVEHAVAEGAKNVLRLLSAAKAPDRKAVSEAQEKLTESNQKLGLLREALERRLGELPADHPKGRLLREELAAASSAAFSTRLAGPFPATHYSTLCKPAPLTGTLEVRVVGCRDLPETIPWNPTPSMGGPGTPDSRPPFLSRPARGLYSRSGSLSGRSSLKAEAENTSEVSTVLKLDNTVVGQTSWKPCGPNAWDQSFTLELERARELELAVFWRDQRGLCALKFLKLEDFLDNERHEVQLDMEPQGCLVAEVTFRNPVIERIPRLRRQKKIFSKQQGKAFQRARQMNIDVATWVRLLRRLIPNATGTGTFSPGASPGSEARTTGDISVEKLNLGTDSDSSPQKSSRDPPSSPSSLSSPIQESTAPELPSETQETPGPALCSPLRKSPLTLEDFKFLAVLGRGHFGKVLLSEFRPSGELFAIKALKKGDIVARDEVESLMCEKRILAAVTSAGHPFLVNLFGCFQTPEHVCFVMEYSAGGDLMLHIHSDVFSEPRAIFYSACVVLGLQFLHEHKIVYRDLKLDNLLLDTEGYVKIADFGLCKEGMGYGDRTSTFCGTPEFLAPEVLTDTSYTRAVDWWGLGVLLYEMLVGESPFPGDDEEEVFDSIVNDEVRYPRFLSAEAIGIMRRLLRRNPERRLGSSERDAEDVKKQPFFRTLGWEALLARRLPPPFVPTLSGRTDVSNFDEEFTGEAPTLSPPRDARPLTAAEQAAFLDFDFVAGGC
Procedure, shortened: as §1

[11] = biological target: T11, 380 human recombinant protein kinases (Homo sapiens, UniProt P54764); conditions: EphA4(h), read-out: Inhibition rate
T11 construct: purchased Eurofins (Celle Lévescault)
Procedure, shortened: as §1

[12] = biological target: T12, 380 human recombinant protein kinases (Homo sapiens, UniProt P31749); conditions: PKBα(h), read-out: Inhibition rate
T12 construct: purchased Eurofins (Celle Lévescault)
T12 sequence (P31749 whole entry): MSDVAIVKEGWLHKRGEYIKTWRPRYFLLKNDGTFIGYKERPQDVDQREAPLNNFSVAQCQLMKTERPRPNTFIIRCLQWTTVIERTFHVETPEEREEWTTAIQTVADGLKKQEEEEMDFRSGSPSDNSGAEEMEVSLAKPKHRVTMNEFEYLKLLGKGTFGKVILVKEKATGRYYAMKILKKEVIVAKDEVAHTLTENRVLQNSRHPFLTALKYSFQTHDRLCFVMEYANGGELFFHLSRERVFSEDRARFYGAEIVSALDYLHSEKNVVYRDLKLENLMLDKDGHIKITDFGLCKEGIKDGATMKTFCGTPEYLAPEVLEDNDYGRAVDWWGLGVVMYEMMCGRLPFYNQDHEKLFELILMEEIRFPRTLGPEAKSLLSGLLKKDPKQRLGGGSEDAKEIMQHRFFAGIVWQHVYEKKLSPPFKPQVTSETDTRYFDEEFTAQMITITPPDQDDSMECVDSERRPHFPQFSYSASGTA
Procedure, shortened: as §1

[13] = biological target: T13, 380 human recombinant protein kinases (Homo sapiens, UniProt Q8N4C8); conditions: MINK(h), read-out: Inhibition rate
T13 construct: purchased Eurofins (Celle Lévescault)
Procedure, shortened: as §1

[14] = biological target: T14, 380 human recombinant protein kinases (Homo sapiens, UniProt Q8WU08); conditions: STK32A(h), read-out: Inhibition rate (%)
T14 construct: purchased Eurofins (Celle Lévescault)
T14 sequence (Q8WU08 whole entry): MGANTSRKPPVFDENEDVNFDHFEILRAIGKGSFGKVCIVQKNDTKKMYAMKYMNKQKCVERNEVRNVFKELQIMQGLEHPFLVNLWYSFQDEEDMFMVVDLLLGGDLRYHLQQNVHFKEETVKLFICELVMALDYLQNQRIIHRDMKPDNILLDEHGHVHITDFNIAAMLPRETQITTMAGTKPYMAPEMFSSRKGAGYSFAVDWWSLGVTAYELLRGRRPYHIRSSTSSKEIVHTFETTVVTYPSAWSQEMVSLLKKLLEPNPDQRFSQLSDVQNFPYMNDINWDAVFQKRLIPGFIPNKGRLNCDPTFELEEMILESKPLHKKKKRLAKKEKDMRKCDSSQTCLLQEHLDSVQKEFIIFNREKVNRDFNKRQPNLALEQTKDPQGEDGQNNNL
Procedure, shortened: as §1

`C=CC(=O)Nc1cc(-c2cc(-c3cc4c([nH]3)CCNC4=O)ccn2)ccc1OC(F)(F)F` [compound 11] showed an inhibition at 0.01 µM ([1]; 10 nM) of -5%, an inhibition at 0.1 µM ([1]; 100 nM) of -3% and an inhibition at 1 µM ([1]; 1000 nM) of -2%. For the same compound, the inhibition at 0.01 µM ([2]; 10 nM) was -11%, the inhibition at 0.1 µM ([2]; 100 nM) was 2% and the inhibition at 1 µM ([2]; 1000 nM) was 6%. The inhibition at 0.01 µM ([3]; 10 nM) was -4%, the inhibition at 0.1 µM ([3]; 100 nM) was -2% and the inhibition at 1 µM ([3]; 1000 nM) was -5%. The inhibition at 0.01 µM ([4]; 10 nM) was -1%, the inhibition at 0.1 µM ([4]; 100 nM) was 16% and the inhibition at 1 µM ([4]; 1000 nM) was 59%. For the same compound, the inhibition at 0.01 µM ([5]; 10 nM) was 4%, the inhibition at 0.1 µM ([5]; 100 nM) was 6% and the inhibition at 1 µM ([5]; 1000 nM) was 38%. It also gave an inhibition at 0.01 µM ([6]; 10 nM) of 0%, an inhibition at 0.1 µM ([6]; 100 nM) of 0% and an inhibition at 1 µM ([6]; 1000 nM) of 2%. For the same compound, the inhibition at 0.01 µM ([7]; 10 nM) was -1%, the inhibition at 0.1 µM ([7]; 100 nM) was 9% and the inhibition at 1 µM ([7]; 1000 nM) was 14%. For the same compound, the inhibition at 0.01 µM ([8]; 10 nM) was -2%, the inhibition at 0.1 µM ([8]; 100 nM) was -1% and the inhibition at 1 µM ([8]; 1000 nM) was 5%. It also gave an inhibition at 0.01 µM ([9]; 10 nM) of -7%, an inhibition at 0.1 µM ([9]; 100 nM) of -5% and an inhibition at 1 µM ([9]; 1000 nM) of 0%. For the same compound, the inhibition at 0.01 µM ([10]; 10 nM) was -3%, the inhibition at 0.1 µM ([10]; 100 nM) was 6% and the inhibition at 1 µM ([10]; 1000 nM) was 4%. For the same compound, the inhibition at 0.01 µM ([11]; 10 nM) was -1%, the inhibition at 0.1 µM ([11]; 100 nM) was 3% and the inhibition at 1 µM ([11]; 1000 nM) was -7%. It also gave an inhibition at 0.01 µM ([12]; 10 nM) of 2%, an inhibition at 0.1 µM ([12]; 100 nM) of 4% and an inhibition at 1 µM ([12]; 1000 nM) of 14%. The inhibition at 0.01 µM ([13]; 10 nM) was -10%, the inhibition at 0.1 µM ([13]; 100 nM) was 3% and the inhibition at 1 µM ([13]; 1000 nM) was 31%. It also gave an inhibition at 0.01 µM ([14]; 10 nM) of 3%, an inhibition at 0.1 µM ([14]; 100 nM) of 10% and an inhibition at 1 µM ([14]; 1000 nM) of 7%.
